Assay results from patent US8192962B2, “Processes for detecting toxic substances” (Daikin Industries, Ltd., priority 2001, dated 2012).

Tested on: Genes belonging to other category
Assay: DNA chip mRNA expression in yeast, genes belonging to other category (Table 9)
Type: cell-based, Saccharomyces cerevisiae S288C
Method: Yeast (Saccharomyces cerevisiae S288C (α SUC2mal mel gap2 CUP1)) were incubated at 25° C. on YPD medium (yeast extract 1%, polypepton 2%, glucose 2%). One of toxic chemical substances was added to the cells at logarithmic growth phase, and the cells were further incubated for two hours. Cells were cultured without any chemical substance in the same condition, and were used as control. Concentrations of the chemical substances were defined to inhibit the growth of the yeast but not lead to death.
After completion of the incubation, the culture was centrifuged to collect the cells. To the cells, sodium acetate buffer (50 mM sodium acetate, 10 mM EDTA, 1% SDS) was added, and the mixture was shaken at 65° C. for five minutes, followed by returning to room temperature, and obtaining the supernatant, of which the procedures were repeated two times. To the supernatant, ½ amount of a solution of phenol/chloroform was added, and the mixture was centrifuged to give a supernatant, which was added with an equal amount of chloroform, and the mixture was centrifuged to give a supernatant. To the supernatant, an equal amount of isopropanol containing 0.3 M sodium acetate was added, and the mixture was allowed to stand at room temperature for 30 minutes, after which the mixture was centrifuged to give a sediment of the whole RNAs. Seventy % ethanol was added to the sediment, and the mixture was again centrifuged to give a sediment, which was then dried and dissolved in water. mRNA was isolated from the whole RNAs as followings. In view of the fact that a poly A chain is attached to the 3′ terminus of mRNA, a polynucleotide having a poly T structure which was immobilized on the surface of latex beads was used to trap the mRNA, and then the mRNA was washed and eluted with spine column (Oligotex-dT30<Super>mRNA Purification Kit, Takara). Reverse transcription of the mRNA was conducted with a reverse transcriptase (Super Script II Reverse Transcriptase; catalogue No. 18064-014, GibcoBRL) using fluorescence-labeled nucleotides to give cDNAs that were introduced with Cy3-dUTP or Cy5-dUTP during the reverse transcription.
The labeled cDNAs were dissolved in TE buffer (10mM Tris-HCl/1 mM EDTA, pH8.0), and the solution was dropped on the DNA chip containing the whole genes of yeast (DNA Chip Research Inc. Japan) so that the cDNAs were hybridized on the DNA chip at 65° C. for over 12 hours. The fluoresces intensity of the DNA chip was read with a scanner, and the ratio relative to the fluorescence intensity resulting from the absence of chemical substance was estimated as the following, which is shown in Tables 1 to 9: […]

Measured: The level of expressed mRNA in the presence of chemical substance/The level of expressed mRNA in the absence of chemical substance

S=C([S-])NCCNC(=S)[S-].[Zn+2] [(11), zinc N,N′-ethylenebis(dithiocarbamate)]
0.6: yeast gene YNR047W | yeast gene YPL105C
1.5: yeast gene YKL008C | yeast gene YLR362W | yeast gene YMR219W | yeast gene YNR035C
1.8: yeast gene YMR314W | yeast gene YPL154C | yeast gene YPR108W
0.1: yeast gene YOR298W
5.0: yeast gene YLR327C
0.8: yeast gene YOR312C
3.2: yeast gene YLR110C
0.7: yeast gene YJR004C | yeast gene YMR214W | yeast gene YNL135C | yeast gene YNL196C | yeast gene YOR003W
2.1: yeast gene YOR261C
4.1: yeast gene YLR251W
1.6: yeast gene YKL097W-A | yeast gene YNL093W | yeast gene YOL005C | yeast gene YOR157C | yeast gene YOR230W
1.9: yeast gene YMR276W
1.2: yeast gene YJL141C | yeast gene YJR058C | yeast gene YKL041W | yeast gene YLR118C | yeast gene YLR120C | yeast gene YLR136C | yeast gene YMR092C | yeast gene YMR238W | yeast gene YMR255W | yeast gene YNL147W | yeast gene YNR030W | yeast gene YOR117W | yeast gene YOR124C | yeast gene YOR185C | yeast gene YOR355W | yeast gene YPL149W
3.1: yeast gene YLR356W | yeast gene YPL230W
2.0: yeast gene YNL333W
0.9: yeast gene YJR069C | yeast gene YLR360W | yeast gene YLR429W | yeast gene YMR091C | yeast gene YMR112C | yeast gene YNL083W | yeast gene YOR023C | yeast gene YPL089C | yeast gene YPR066W | yeast gene YPR081C | yeast gene YPR103W | yeast gene YPR155C | yeast gene YPR185W
1.0: yeast gene YJR086W | yeast gene YKL039W | yeast gene YLR093C | yeast gene YMR094W | yeast gene YOL164W | yeast gene YOR181W | yeast gene YOR259C
1.4: yeast gene YKL139W | yeast gene YKL198C | yeast gene YLR250W | yeast gene YLR340W | yeast gene YLR391W | yeast gene YML055W | yeast gene YMR226C | yeast gene YNR010W | yeast gene YOL013C | yeast gene YOR058C | yeast gene YOR198C | yeast gene YOR288C | yeast gene YOR383C | yeast gene YPL177C | yeast gene YPR028W
3.7: yeast gene YLR178C
1.7: yeast gene YKL193C
1.1: yeast gene YKL013C | yeast gene YKR014C | yeast gene YMR104C | yeast gene YMR275C | yeast gene YNL006W
0.3: yeast gene YKL165C
−0.2: yeast gene YPL109C
0.4: yeast gene YNL039W
2.5: yeast gene YMR004W | yeast gene YNR069C
3.5: yeast gene YKL096W
1.3: yeast gene YKL079W | yeast gene YNL007C | yeast gene YNR034W | yeast gene YOR036W | yeast gene YOR132W | yeast gene YOR148C | yeast gene YOR265W
